Assay results from patent US20250011300A1, “PIPERAZINYLSULFONYLARYL COMPOUNDS FOR TREATMENT OF BACTERIAL INFECTIONS” (Hoffmann-La Roche Inc., priority 2021, published 2025).
In brackets after ≈: the same amount, converted by molar mass.

What was measured:
[1] = system: K. pneumonia (ATCC 43816); experiment: Minimal Inhibitory Concentration (MIC) assay, K. pneumonia; format: cell-based; conditions: Klebsiella pneumoniae; K. pneumoniae ATCC43816, CAMHB, 20 hours at 35° C.; read-out: MIC K. pneumoniae ATCC43816
Method: (§1) Example 122: Minimal Inhibitory Concentration Protocol (MIC) Assay
(§2) The in vitro potency of compounds to inhibit E. coli (ATCC 25922) and K. pneumonia (ATCC 43816) growth was assessed by MIC (Minimal Inhibitory Concentration) assay. Samples were prepared from 10 mM DMSO stock solutions. After serial 2-fold dilution in DMSO in a master plate (Greiner, Cat No: 651201), 180 μL sterile distilled water was added to 20 μL each aliquot of the samples. Then 10 μL diluted compounds were transferred into a new assay plate (Costar, 3599).
(§3) The growth medium Cation-Adjusted Mueller Hinton Broth (CAMHB) was prepared by adding the 20 mg per liter CaCl2) and 20 mg per liter MgCl2 into the MHB medium (Jianglai Company, sterilized).
(§4) Vials of each of the test microorganisms were maintained frozen in the vapor phase of a liquid nitrogen freezer. The bacteria E. coli ATCC 25922 (KWIKSTIK, 0335K) and K. pneumonia ATCC 43816 were taken out from liquid nitrogen freezer, then thawed in room temperature, and diluted in the CAMHB medium to achieve a final inoculum of 5×10^5 CFU/mL. 90 μL CAMHB with bacteria was dispensed to the assay plate and pipetted 5 times.
(§5) Then the assay plates were incubated for 20 hours at 35° C. in ambient air. Following incubation, the MIC (μg/mL), the lowest concentration of drug that inhibits visible growth of the microorganism was read and recorded throw the microscope.

E. coli (ATCC 25922) = experiment: Minimal Inhibitory Concentration (MIC) assay, E. coli; format: cell-based; conditions: Escherichia coli, ATCC25922; E. coli ATCC 25922, CAMHB, 20 hours at 35° C.; read-out: MIC E. coli ATCC 25922
Method: as §1, §2, §3, §4, §5

SMILES	MIC [1]	MIC (E. coli (ATCC 25922))
O=C1O[C@@H]2[C@@H](O)[C@H](CO)[C@@H](O)O[C@@H]2N1c1ccc(S(=O)(=O)N2CCN(c3cc(C(F)(F)F)cc(Cl)n3)CC2)cc1 [Example 23, (3aS,5S,6S,7S,7aR)-3-[4-[4-[6-chloro-4-(trifluoromethyl)-2-pyridyl]piperazin-1-yl]sulfonylphenyl]-5,7-dihydroxy-6-(hydroxymethyl)-5,6,7,7a-tetrahydro-3aH-pyrano[2,3-d]oxazol-2-one]	60.9 µg/mL (≈ 100 µM)	30.4 µg/mL (≈ 50 µM)
NC1CC(=O)N(c2ccc(S(=O)(=O)N3CCN(c4cc(C(F)(F)F)cc(Cl)n4)CC3)cn2)C1 (stereo not shown) [Example 62, 4-Amino-1-[5-[4-[6-chloro-4-(trifluoromethyl)-2-pyridyl]piperazin-1-yl]sulfonyl-2-pyridyl]pyrrolidin-2-one]	15.5 µg/mL (≈ 30.6 µM)	7.74 µg/mL (≈ 15.3 µM)
Cc1cc(C(F)(F)F)nc(N2CCN(S(=O)(=O)c3ccc(N4CC(N)CC4=O)cc3)CC2)n1 (stereo not shown) [Example 65, 4-Amino-1-[4-[4-[4-methyl-6-(trifluoromethyl)pyrimidin-2-yl]piperazin-1-yl]sulfonylphenyl]pyrrolidin-2-one]	7.48 µg/mL (≈ 15.4 µM)	3.74 µg/mL (≈ 7.72 µM)
[2H]C([2H])([2H])c1cc(C(F)(F)F)nc(N2CCN(S(=O)(=O)c3ccc(N4CC(N)CC4=O)cc3)CC2)n1 (stereo not shown) [Example 66, 4-Amino-1-[4-[4-[4-(trideuteriomethyl)-6-(trifluoromethyl)pyrimidin-2-yl]piperazin-1-yl]sulfonylphenyl]pyrrolidin-2-one]	7.52 µg/mL (≈ 15.4 µM)	3.76 µg/mL (≈ 7.71 µM)
NC1CC(=O)N(c2ccc(S(=O)(=O)N3CCN(c4nc(C5CC5)cc(C(F)(F)c5ccccc5)n4)CC3)cc2)C1 (stereo not shown) [Example 80, 4-Amino-1-[4-[4-[4-cyclopropyl-6-[difluoro(phenyl)methyl]pyrimidin-2-yl]piperazin-1-yl]sulfonylphenyl]pyrrolidin-2-one]	> 28.4 µg/mL	> 28.4 µg/mL

These reach a lower MIC [1]. Values come first.

MIC [1]	MIC (E. coli (ATCC 25922))	SMILES
5.71 µg/mL (≈ 9.96 µM)	1.91 µg/mL (≈ 3.33 µM)	O=C1CC(N2CCNCC2)CN1c1ccc(S(=O)(=O)N2CCN(c3cc(C(F)(F)F)cc(Cl)n3)CC2)cc1 (stereo not shown) [Example 47, 1-[4-[4-[6-Chloro-4-(trifluoromethyl)-2-pyridyl]piperazin-1-yl]sulfonylphenyl]-4-piperazin-1-yl-pyrrolidin-2-one]
3.81 µg/mL (≈ 6.65 µM)	1.91 µg/mL (≈ 3.33 µM)	NC1CCN(C2CC(=O)N(c3ccc(S(=O)(=O)N4CCN(c5cc(C(F)(F)F)cc(Cl)n5)CC4)cc3)C2)C1 (stereo not shown) [Example 50, 4-(3-Aminopyrrolidin-1-yl)-1-[4-[4-[6-chloro-4-(trifluoromethyl)-2-pyridyl]piperazin-1-yl]sulfonylphenyl]pyrrolidin-2-one]
1.18 µg/mL (≈ 2.24 µM)	1.18 µg/mL (≈ 2.24 µM)	NC1CC(=O)N(c2ccc(S(=O)(=O)N3CCN(c4cc(Cc5ccccc5)cc(Cl)n4)CC3)cc2)C1 (stereo not shown) [Example 74, 4-Amino-1-[4-[4-(4-benzyl-6-chloro-2-pyridyl)piperazin-1-yl]sulfonylphenyl]pyrrolidin-2-one]
1.22 µg/mL (≈ 2.21 µM)	1.22 µg/mL (≈ 2.21 µM)	NC1CC(=O)N(c2ccc(S(=O)(=O)N3CCN(c4cc(C5(c6ccccc6)CC5)cc(Cl)n4)CC3)cc2)C1 (stereo not shown) [Example 75, 4-Amino-1-[4-[4-[6-chloro-4-(1-phenylcyclopropyl)-2-pyridyl]piperazin-1-yl]sulfonylphenyl]pyrrolidin-2-one]
1.76 µg/mL (≈ 3.13 µM)	0.22 µg/mL (≈ 0.391 µM)	NC1CC(=O)N(c2ccc(S(=O)(=O)N3CCN(c4nc(Cl)cc(C(F)(F)c5ccccc5)n4)CC3)cc2)C1 (stereo not shown) [Example 78, 4-Amino-1-[4-[4-[4-chloro-6-[difluoro(phenyl)methyl]pyrimidin-2-yl]piperazin-1-yl]sulfonylphenyl]pyrrolidin-2-one]
6.98 µg/mL (≈ 12.5 µM)	4.36 µg/mL (≈ 7.81 µM)	COc1nc(N2CCN(S(=O)(=O)c3ccc(N4CC(N)CC4=O)cc3)CC2)cc(C(F)(F)c2ccccc2)n1 (stereo not shown) [Example 81, 4-Amino-1-[4-[4-[6-[difluoro(phenyl)methyl]-2-methoxy-pyrimidin-4-yl]piperazin-1-yl]sulfonylphenyl]pyrrolidin-2-one]
